The record followed here is the NIST ThermoML archive (doi:10.1016/j.fluid.2009.08.017).

± gives the expanded uncertainty stated by the source.

This series in a line: activity coefficient (dimensionless); of the first substance listed, at infinite dilution; xn = mol fraction of the nth substance listed. As to conditions: 101 kPa, Liquid, Chromatography, x1 = 0.

Regarding `C#CCCCCC` [1-heptyne] + CCCCCCOCn1cc[n+](COCCCCCC)c1.O=S(=O)([N-]S(=O)(=O)C(F)(F)F)C(F)(F)F, the activity coefficient (298.15 K) was found to be 1.37 ± 0.089; the activity coefficient (308.15 K) turned out to be 1.38 ± 0.09; the activity coefficient (318.15 K) was determined as 1.39 ± 0.09; the activity coefficient (328.15 K) turned out to be 1.39 ± 0.091; the activity coefficient (338.15 K) was determined as 1.4 ± 0.091; the activity coefficient (348.15 K) is 1.4 ± 0.092. Also, the activity coefficient is, setting by setting: (358.15 K) 1.41 ± 0.092; (368.15 K) 1.42 ± 0.093.
Take `C#CCCCC` [1-hexyne] + CCCCCCOCn1cc[n+](C)c1.O=S(=O)([N-]S(=O)(=O)C(F)(F)F)C(F)(F)F: the activity coefficient was 1.93 ± 0.13 (298.15 K); 1.94 ± 0.13 (308.15 K); 1.95 ± 0.13 (318.15 K); 1.96 ± 0.13 (328.15 K); 1.97 ± 0.13 (338.15 K); 1.98 ± 0.13 (348.15 K). The activity coefficient came to 1.98 ± 0.13 (358.15 K) and 1.99 ± 0.14 (368.15 K).
On to `C#CCCCC` [1-hexyne] + CCCCCCOCn1cc[n+](COCCCCCC)c1.O=S(=O)([N-]S(=O)(=O)C(F)(F)F)C(F)(F)F, for which the activity coefficient is 1.16 ± 0.074 (298.15 K); 1.17 ± 0.075 (308.15 K); 1.17 ± 0.075 (318.15 K); 1.18 ± 0.075 (328.15 K); 1.18 ± 0.076 (338.15 K); 1.19 ± 0.076 (348.15 K). Further, the activity coefficient is 1.19 ± 0.076 (358.15 K) and 1.19 ± 0.076 (368.15 K).
On to `C#CCCCCCC` [1-octyne] + CCCCCCOCn1cc[n+](C)c1.O=S(=O)([N-]S(=O)(=O)C(F)(F)F)C(F)(F)F, for which the activity coefficient by setting is: (298.15 K) 3.15 ± 0.21; (308.15 K) 3.14 ± 0.21; (318.15 K) 3.13 ± 0.21; (328.15 K) 3.13 ± 0.21; (338.15 K) 3.12 ± 0.21; (348.15 K) 3.11 ± 0.21. Besides, the activity coefficient is 3.11 ± 0.21 (358.15 K) and 3.1 ± 0.21 (368.15 K).
Consider `C#CCCCCCC` [1-octyne] + CCCCCCOCn1cc[n+](COCCCCCC)c1.O=S(=O)([N-]S(=O)(=O)C(F)(F)F)C(F)(F)F, for which the activity coefficient (298.15 K) came out at 1.65 ± 0.11; the activity coefficient (308.15 K) turned out to be 1.66 ± 0.11; the activity coefficient (318.15 K) was 1.66 ± 0.11; the activity coefficient (328.15 K) came out at 1.66 ± 0.11; the activity coefficient (338.15 K) turned out to be 1.67 ± 0.11; the activity coefficient (348.15 K) amounted to 1.67 ± 0.11. The activity coefficient (358.15 K) worked out at 1.67 ± 0.11 and the activity coefficient (368.15 K) stood at 1.67 ± 0.11.
In the case of `C=CCCC` [1-pentene] + CCCCCCOCn1cc[n+](C)c1.O=S(=O)([N-]S(=O)(=O)C(F)(F)F)C(F)(F)F, the activity coefficient is, setting by setting: (298.15 K) 3.96 ± 0.27; (308.15 K) 3.86 ± 0.26; (318.15 K) 3.77 ± 0.26; (328.15 K) 3.69 ± 0.25; (338.15 K) 3.61 ± 0.25; (348.15 K) 3.53 ± 0.24. Besides, the activity coefficient is, setting by setting: (358.15 K) 3.47 ± 0.24; (368.15 K) 3.41 ± 0.23.
As to `C=CCCC` [1-pentene] + CCCCCCOCn1cc[n+](COCCCCCC)c1.O=S(=O)([N-]S(=O)(=O)C(F)(F)F)C(F)(F)F, the activity coefficient (298.15 K) is 1.9 ± 0.13; the activity coefficient (308.15 K) is 1.87 ± 0.13; the activity coefficient (318.15 K) is 1.83 ± 0.12; the activity coefficient (328.15 K) is 1.8 ± 0.12; the activity coefficient (338.15 K) amounted to 1.77 ± 0.12; the activity coefficient (348.15 K) is 1.75 ± 0.12. For the same compound, the activity coefficient is 1.72 ± 0.12 (358.15 K) and 1.7 ± 0.11 (368.15 K).
As to `C#CCCC` [1-pentyne] + CCCCCCOCn1cc[n+](C)c1.O=S(=O)([N-]S(=O)(=O)C(F)(F)F)C(F)(F)F, the activity coefficient (298.15 K) is 1.54 ± 0.1; the activity coefficient (308.15 K) is 1.56 ± 0.1; the activity coefficient (318.15 K) stood at 1.57 ± 0.1; the activity coefficient (328.15 K) was found to be 1.58 ± 0.1; the activity coefficient (338.15 K) is 1.59 ± 0.11; the activity coefficient (348.15 K) turned out to be 1.59 ± 0.11. The activity coefficient is, setting by setting: (358.15 K) 1.6 ± 0.11; (368.15 K) 1.61 ± 0.11.
Consider `C#CCCC` [1-pentyne] + CCCCCCOCn1cc[n+](COCCCCCC)c1.O=S(=O)([N-]S(=O)(=O)C(F)(F)F)C(F)(F)F, for which the activity coefficient worked out at 0.992 ± 0.062 (298.15 K); 0.997 ± 0.062 (308.15 K); 1 ± 0.063 (318.15 K); 1.01 ± 0.063 (328.15 K); 1.01 ± 0.063 (338.15 K); 1.02 ± 0.064 (348.15 K). In addition, the activity coefficient worked out at 1.02 ± 0.064 (358.15 K) and 1.02 ± 0.064 (368.15 K).
Turning to `COC(C)(C)C` [2-methoxy-2-methylpropane] + CCCCCCOCn1cc[n+](C)c1.O=S(=O)([N-]S(=O)(=O)C(F)(F)F)C(F)(F)F, the activity coefficient by setting is: (298.15 K) 1.26 ± 0.08; (308.15 K) 1.29 ± 0.08; (318.15 K) 1.32 ± 0.09; (328.15 K) 1.36 ± 0.09; (338.15 K) 1.39 ± 0.09; (348.15 K) 1.41 ± 0.09. Further, the activity coefficient was 1.44 ± 0.09 (358.15 K) and 1.46 ± 0.1 (368.15 K).
For the compound `COC(C)(C)C` [2-methoxy-2-methylpropane] + CCCCCCOCn1cc[n+](COCCCCCC)c1.O=S(=O)([N-]S(=O)(=O)C(F)(F)F)C(F)(F)F, the activity coefficient stood at 0.759 ± 0.05 (298.15 K); 0.78 ± 0.051 (308.15 K); 0.801 ± 0.052 (318.15 K); 0.821 ± 0.053 (328.15 K); 0.841 ± 0.054 (338.15 K); 0.859 ± 0.055 (348.15 K). Besides, the activity coefficient amounted to 0.877 ± 0.056 (358.15 K) and 0.896 ± 0.057 (368.15 K).
Take `CC(C)=O` [acetone] + CCCCCCOCn1cc[n+](C)c1.O=S(=O)([N-]S(=O)(=O)C(F)(F)F)C(F)(F)F: the activity coefficient (298.15 K) came out at 0.3 ± 0.031; the activity coefficient (308.15 K) was determined as 0.308 ± 0.031; the activity coefficient (318.15 K) worked out at 0.315 ± 0.031; the activity coefficient (328.15 K) stood at 0.322 ± 0.031; the activity coefficient (338.15 K) came to 0.328 ± 0.032; the activity coefficient (348.15 K) came to 0.336 ± 0.032. In addition, the activity coefficient by setting is: (358.15 K) 0.342 ± 0.032; (368.15 K) 0.348 ± 0.032.
Consider `CC(C)=O` [acetone] + CCCCCCOCn1cc[n+](COCCCCCC)c1.O=S(=O)([N-]S(=O)(=O)C(F)(F)F)C(F)(F)F, for which the activity coefficient was 0.262 ± 0.03 (298.15 K); 0.267 ± 0.03 (308.15 K); 0.272 ± 0.03 (318.15 K); 0.277 ± 0.03 (328.15 K); 0.281 ± 0.03 (338.15 K); 0.286 ± 0.031 (348.15 K). Besides, the activity coefficient (358.15 K) turned out to be 0.29 ± 0.031 and the activity coefficient (368.15 K) is 0.294 ± 0.031.
For the compound `c1ccccc1` [benzene] + CCCCCCOCn1cc[n+](C)c1.O=S(=O)([N-]S(=O)(=O)C(F)(F)F)C(F)(F)F, the activity coefficient is 0.802 ± 0.052 (298.15 K); 0.807 ± 0.052 (308.15 K); 0.812 ± 0.053 (318.15 K); 0.816 ± 0.053 (328.15 K); 0.82 ± 0.053 (338.15 K); 0.824 ± 0.053 (348.15 K). Also, the activity coefficient reads like this: (358.15 K) 0.827 ± 0.053; (368.15 K) 0.832 ± 0.054.
For the compound `c1ccccc1` [benzene] + CCCCCCOCn1cc[n+](COCCCCCC)c1.O=S(=O)([N-]S(=O)(=O)C(F)(F)F)C(F)(F)F, the activity coefficient was determined as 0.608 ± 0.043 (298.15 K); 0.608 ± 0.043 (308.15 K); 0.607 ± 0.042 (318.15 K); 0.607 ± 0.042 (328.15 K); 0.606 ± 0.042 (338.15 K); 0.606 ± 0.042 (348.15 K). For the same compound, the activity coefficient by setting is: (358.15 K) 0.606 ± 0.042; (368.15 K) 0.606 ± 0.042.
As for `CCCCO` [butan-1-ol] + CCCCCCOCn1cc[n+](C)c1.O=S(=O)([N-]S(=O)(=O)C(F)(F)F)C(F)(F)F, the activity coefficient was determined as 1.74 ± 0.12 (318.15 K); 1.58 ± 0.1 (328.15 K); 1.45 ± 0.1 (338.15 K); 1.34 ± 0.09 (348.15 K); 1.24 ± 0.08 (358.15 K); 1.15 ± 0.07 (368.15 K).
On to `CCCCO` [butan-1-ol] + CCCCCCOCn1cc[n+](COCCCCCC)c1.O=S(=O)([N-]S(=O)(=O)C(F)(F)F)C(F)(F)F, for which the activity coefficient by setting is: (318.15 K) 1.19 ± 0.08; (328.15 K) 1.1 ± 0.07; (338.15 K) 1.01 ± 0.064; (348.15 K) 0.943 ± 0.059; (358.15 K) 0.877 ± 0.056; (368.15 K) 0.82 ± 0.053.
For the compound `C1CCCCCC1` [cycloheptane] + CCCCCCOCn1cc[n+](C)c1.O=S(=O)([N-]S(=O)(=O)C(F)(F)F)C(F)(F)F, the activity coefficient runs as follows: (298.15 K) 6.51 ± 0.44; (308.15 K) 6.15 ± 0.42; (318.15 K) 5.8 ± 0.4; (328.15 K) 5.49 ± 0.37; (338.15 K) 5.23 ± 0.36; (348.15 K) 5.02 ± 0.34. The activity coefficient amounted to 4.79 ± 0.33 (358.15 K) and 4.6 ± 0.31 (368.15 K).
`C1CCCCCC1` [cycloheptane] + CCCCCCOCn1cc[n+](COCCCCCC)c1.O=S(=O)([N-]S(=O)(=O)C(F)(F)F)C(F)(F)F: the activity coefficient was determined as 2.71 ± 0.18 (298.15 K); 2.6 ± 0.18 (308.15 K); 2.5 ± 0.17 (318.15 K); 2.41 ± 0.16 (328.15 K); 2.33 ± 0.16 (338.15 K); 2.25 ± 0.15 (348.15 K). Also, the activity coefficient reads like this: (358.15 K) 2.19 ± 0.15; (368.15 K) 2.12 ± 0.14.
As for `C1CCCCC1` [cyclohexane] + CCCCCCOCn1cc[n+](C)c1.O=S(=O)([N-]S(=O)(=O)C(F)(F)F)C(F)(F)F, the activity coefficient by setting is: (298.15 K) 5.44 ± 0.37; (308.15 K) 5.14 ± 0.35; (318.15 K) 4.87 ± 0.33; (328.15 K) 4.63 ± 0.32; (338.15 K) 4.43 ± 0.3; (348.15 K) 4.24 ± 0.29. The activity coefficient (358.15 K) came to 4.07 ± 0.28 and the activity coefficient (368.15 K) was determined as 3.91 ± 0.27.
